On the set-up of data set [1]: method as in printed. The note with it: by 2 h after oral administration of a 50 mg tablet; literature data, ref not given; cited from earlier work.
For data set [2], the system named is adenine nucleotide translocase ANT1 (SLC25A4) expression in K-562 cells. The experiment in a line: Real-time PCR of ANT1 expression, K-562. In kind it is cell-based, human. Particulars: 10 μM, 48 h incubation, 2^−∆∆CT vs GAPDH. For orientation: Quantitative PCR measures a nucleic acid by following its amplification.
Procedure: The mRNA was extracted using an RNA extraction kit (Syntol, Moscow, Russia), and cDNA synthesis was performed using the cDNA Reverse Transcription Kit OT-1 (Syntol, Russia) with random hexamers according to the manufacturer’s instructions. The real-time steps were run on an iCycler iQ5 real-time PCR instrument (Bio-Rad, Hercules, CA, USA) in 40 cycles, with the following steps: denaturation step (10 s, 95 °C), annealing and elongation step (40 s, 62 °C). We used 10 μL of the quantitative real-time PCR reaction mix from a commercial kit (Cat. No M-427, Syntol, Moscow, Russia) for each probe. Primers were used at 100 nM for each probe per reaction, 2 μL of the forward primer, and 2 μL of the reverse primer. The total probe volume in a flat cap was 25 μL. The Gapdh (glyceraldehyde phosphate dehydrogenase) gene was used as a control gene (housekeeping gene). […] To determine the levels of gene expression, the values 2^−∆∆CT were used, where the threshold number of cycles (Ct) is the number of PCR cycles at which the fluorescence exceeds the threshold value (to detect significant differences between data groups) and 2^−∆∆CT (for determining the multiplicity of differences, where ∆Ct = Ct (of the desired gene) − Ct (GAPDH) and ∆∆Ct = ∆Ct (sample) − ∆Ct (control)) [38].
The statistical significance of the real-time PCR data was determined using the Mann–Whitney U test (p < 0.05) between the control group (non-treated cells) and treated group (drug-treated cells). Each experiment was repeated three times, with three repeats (3 wells) within each experiment. The mean ± standard deviation value was calculated for each point.
In data set [3] the test system is human breast adenocarcinoma MCF-7. The experiment in a line: MTT cell viability assay, MCF-7. In kind it is cell-based. The note with it: Homo sapiens, MCF7; 48 h incubation, MTT. As to the method: (§1) The cell cultures were grown at 37 °C in an atmosphere of 5% CO2 and 100% humidity.
(§2) The cell viability was assessed using the MTT method. The cell cultures were seeded in 96-well plates at a density of 10,000 cells per well. After the cells were attached to the surface of the wells, they were incubated in the presence of the test substances at final concentrations in the range of 10^−8 M to 10^−4 M for 48 h. […] At the end of the incubation, the medium in which the cells with substances were cultivated was replaced with a nutrient medium without fetal calf serum, which contained 5 mg/mL MTT, and the incubation continued for another 2 h in a CO2 incubator. After incubation, the medium with MTT was removed, and a DMSO solution was added to the wells to dissolve the formazan precipitate formed from MTT during the cell life. The optical density of the samples was measured at a wavelength of 530 nm on a photometer Uniplan AIFR-01 (Pikon, Moscow, Russia). The cell viability in the cultures was expressed as a percentage relative to the values obtained for the control samples (without tested compounds). The average values of optical density in the control samples were taken as 100%.
(§3) Statistical analysis was carried out using the GraphPad Prism v8.4.3 software with nonlinear regression analysis for the cell viability assay. Each experiment was repeated three times, with three repetitions (3 wells) within each experiment and 12 repetitions for the control wells (for the control in each experiment, the whole line of the 96-well plate was used to avoid large differences within the control points). The mean ± standard deviation value was calculated for each point.
On the technique in general: Tetrazolium assays rely on reduction of a dye to a coloured formazan, in cell work by metabolically active cells.

Data set [4] has as its system adenine nucleotide translocase ANT1 (SLC25A4) expression in Hep-2 cells. Briefly: Real-time PCR of ANT1 expression, Hep-2. The note with it: 10 μM, 48 h incubation, 2^−∆∆CT vs GAPDH. It is filed as cell-based, human. As to the method: The mRNA was extracted using an RNA extraction kit (Syntol, Moscow, Russia), and cDNA synthesis was performed using the cDNA Reverse Transcription Kit OT-1 (Syntol, Russia) with random hexamers according to the manufacturer’s instructions. The real-time steps were run on an iCycler iQ5 real-time PCR instrument (Bio-Rad, Hercules, CA, USA) in 40 cycles, with the following steps: denaturation step (10 s, 95 °C), annealing and elongation step (40 s, 62 °C). We used 10 μL of the quantitative real-time PCR reaction mix from a commercial kit (Cat. No M-427, Syntol, Moscow, Russia) for each probe. Primers were used at 100 nM for each probe per reaction, 2 μL of the forward primer, and 2 μL of the reverse primer. […] To determine the levels of gene expression, the values 2^−∆∆CT were used, where the threshold number of cycles (Ct) is the number of PCR cycles at which the fluorescence exceeds the threshold value (to detect significant differences between data groups) and 2^−∆∆CT (for determining the multiplicity of differences, where ∆Ct = Ct (of the desired gene) − Ct (GAPDH) and ∆∆Ct = ∆Ct (sample) − ∆Ct (control)).
The statistical significance of the real-time PCR data was determined using the Mann–Whitney U test (p < 0.05) between the control group (non-treated cells) and treated group (drug-treated cells). […] The mean ± standard deviation value was calculated for each point.

Another data set relates to HeLa. The note with it: cited from earlier work.
Data set [5] has as its system adenine nucleotide translocase ANT1 (SLC25A4) expression in MCF-7 cells. Briefly: Real-time PCR of ANT1 expression, MCF-7. It is filed as cell-based, human. Particulars: 10 μM, 48 h incubation, 2^−∆∆CT vs GAPDH.
Procedure: (§4) The mRNA was extracted using an RNA extraction kit (Syntol, Moscow, Russia), and cDNA synthesis was performed using the cDNA Reverse Transcription Kit OT-1 (Syntol, Russia) with random hexamers according to the manufacturer’s instructions. The real-time steps were run on an iCycler iQ5 real-time PCR instrument (Bio-Rad, Hercules, CA, USA) in 40 cycles, with the following steps: denaturation step (10 s, 95 °C), annealing and elongation step (40 s, 62 °C). We used 10 μL of the quantitative real-time PCR reaction mix from a commercial kit (Cat. No M-427, Syntol, Moscow, Russia) for each probe. Primers were used at 100 nM for each probe per reaction, 2 μL of the forward primer, and 2 μL of the reverse primer. […] To determine the levels of gene expression, the values 2^−∆∆CT were used, where the threshold number of cycles (Ct) is the number of PCR cycles at which the fluorescence exceeds the threshold value (to detect significant differences between data groups) and 2^−∆∆CT (for determining the multiplicity of differences, where ∆Ct = Ct (of the desired gene) − Ct (GAPDH) and ∆∆Ct = ∆Ct (sample) − ∆Ct (control)) [38].
A further data set concerns MCT4. More on the design: method as in PMID 31577944. The note with it: read-out: IC50 lactate transporter activity MCT4; cited from earlier work.
The next data set deals with HT-29. The note with it: 48 h incubation; read-out: IC50 HT-29 (literature); cited from earlier work.
The test system of data set [6] is human larynx carcinoma Hep-2. Briefly: MTT cell viability assay, Hep-2. The note with it: Homo sapiens, HEp-2; 48 h incubation, MTT. In kind it is cell-based. As to the method: as §1, §2, §3
In data set [7] the test system is human embryonic lung fibroblasts Wi-38. The experiment in a line: MTT cell viability assay, Wi-38 (non-tumor). In kind it is cell-based. The note with it: 48 h incubation, noncancerous cells. As to the method: All cell lines were obtained from the Russian Research Institute of Medicinal and Aromatic Plants biocollection bank: http://vilarnii.ru/biokollektsii/ (accessed on 30 August 2023).
The cell cultivation was carried out under sterile conditions on the culture medium DMEM/F-12 (for HeLa, Hep-2, MCF-7, Wi-38) and RPMI (for K-562) supplemented with 10% fetal calf serum and antibiotics (penicillin and streptomycin 100 units/mL, amphotericin B 100 µg/mL). The cell cultures were grown at 37 °C in an atmosphere of 5% CO2 and 100% humidity.
as §2, §3
The analysis of the experimental curves using the GraphPad Prism v8.4.3 program (San Diego, CA, USA) gave the half-maximal inhibition concentrations (IC50) for each compound on all cell lines.

Data set [8] relates to adenine nucleotide translocase ANT1 (SLC25A4) expression in Wi-38 cells. The experiment in a line: Real-time PCR of ANT1 expression, Wi-38. It is filed as cell-based, human. Particulars: 10 μM, 48 h incubation, 2^−∆∆CT vs GAPDH.
Procedure: as §4
The next data set deals with MCF-7. Particulars: 48 h incubation; read-out: IC50 MCF-7 (literature); cited from earlier work.
Data set [9] deals with human cervical adenocarcinoma HeLa. Briefly: MTT cell viability assay, HeLa. It is filed as cell-based. Particulars: Homo sapiens, HeLa, 48 h, 48 h incubation, MTT. As to the method:
as §1, §2, §3

Data set [10] relates to human chronic erythroleukemia K-562. Briefly: MTT cell viability assay, K-562. Particulars: 48 h incubation, MTT. In kind it is cell-based. As for the experimental part:
as §1, §2, §3

In general, IC50 refers to the point on the concentration scale where inhibition reaches its midpoint.

Entries after “also recorded” stand apart in the source; their conditions may differ. Like-named read-outs stand apart in the source and are kept apart here.

Regarding `O=C(O)Cc1ccccc1Nc1c(Cl)cccc1Cl` [DCF, diclofenac], in [1], the “maximum concentration in the blood” value was 5 µM. Further, the “ANT1 mRNA expression in K562 cells” value in [2] is on record as “decreased it; also recorded: highest inhibition rate of ANT1 expression”. Moreover, the IC50 in data set [3] is 595 ± 119 µM; with HeLa (48 h incubation, read-out: IC50 HeLa (literature)) it was 548 µM; with HeLa (read-out: IC50 HeLa, values obtained earlier) it was 200 µM; with MCT4, 0.14 ± 0.01 µM; in the data set on HT-29, 248 µM; in data set [6], 146 ± 22.5 µM. The IC50 in data set [7] was greater than 100 µM; in the data set on MCF-7, 150 µM; in data set [9], 384 ± 99.1 µM; in [10], 31.5 ± 8.45 µM; in data set [10] (Homo sapiens, K562, 48 h) it was 31 µM. In data set [4], the “ANT1 mRNA expression in Hep-2 cells” value is listed as “decreased it”. In addition, the “ANT1 mRNA expression in MCF-7 cells” value in data set [5] is on record as “decreased it”. For the same molecule, in [8], the “ANT1 mRNA expression in Wi-38 cells” value is on record as “increased ANT1 expression”.

The values are drawn from paper PMC10747029 (Pharmaceutics, 2023).
